Values of other authors as cited in patent US8728553B2, “Vitamin containing product” (Nattopharma ASA, priority 2000, dated 2014).

Settings: intake of 5 g butter to which 800 μg MK-4 had been added (equivalent to 16 mg MK-4 per 100 g butter)

## CC(C)=CCC/C(C)=C/CC/C(C)=C/CC/C(C)=C/CC1=C(C)C(=O)c2ccccc2C1=O [MK-4, menaquinone (MK-4)]
  MK-4 levels in blood serum: increased
